Test results: PubChem BioAssay AID1259426 (Fisher Drug Discovery Resource Center, 2018)
Calls of active or inactive are those of the source.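 Rule for the calls: active = EC50 under a set limit in control cells lacking the mosquito receptor, marking a fluorescence artifact; inactive = the rest.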

target: HEK293 Galpha15/GCaMP6s without NPYLR7, calcium fluorescence; test: nonspecific activation in parental Galpha15/GCaMP6s cells – cell-based, HEK293 lacking NPYLR7, counter-screen for mosquito NPYLR7 agonist project, dose response (AID 1259426);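 note: potency for a rise in fluorescence over baseline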

Structure (SMILES) | EC50
CSc1ccc(C2CC(c3cccs3)=Nc3ncnn32)cc1 (stereo unspecified) | 1.4 µM
COC(=O)C1CCN(S(=O)(=O)c2c(F)cc(F)cc2Br)CC1 | > 20 µM (inactive)
COc1cc(/C=C2\SC(=S)N(c3cccc(C(=O)O)c3)C2=O)ccc1O | > 20 µM (inactive)
COc1ccc(CN2CCN(Cc3cccn3-c3ncccn3)CC2CCO)c(C)c1C (stereo unspecified) | > 20 µM (inactive)
Cc1ccc(C2=NN(C(=O)CN3CCN(C)CC3)C(c3ccccc3Cl)C2)cc1 (stereo unspecified) | > 20 µM (inactive)
CCN1CCc2c(sc(NC(=O)COc3ccccc3)c2-c2nc3ccccc3s2)C1 | > 20 µM (inactive)
COc1cc(C=C(C#N)C(=O)OC(C)C)cc(Cl)c1O | > 20 µM (inactive)
COc1cc(OC)c(C2=NOC3(CC(=O)N(c4cccc(Cl)c4)C3=O)C2)cc1OC (stereo unspecified) | > 20 µM (inactive)
O=c1nc2sc3[nH]c(=O)sc3cc-2s1 | < 0.039 µM
CC(=O)NN1C(=O)/C(=C\c2ccc(O)cc2)SC1=S | 3.61 µM
COc1ccc2nc(C=Cc3cc(Br)c(O)c(OC)c3)sc2c1 | > 20 µM (inactive)
CC(=O)Oc1c(/C=C(\C#N)C(N)=O)[nH]c2ccccc12 | 6.22 µM
Cc1ccccc1CNc1ncnc2c1ncn2C1OC(CO)C(O)C1O (stereo unspecified) | 6.77 µM
CCN1CCN(Cc2c(O)ccc3c2O/C(=C\c2cc4cc(Br)ccc4o2)C3=O)CC1 | 6.94 µM
CC(C(=O)O)N1C(=O)/C(=C\c2ccc(O)cc2)SC1=S (stereo unspecified) | 12.1 µM
Cc1nc(=O)c(-c2ccccc2)c(C)n1-c1ccccc1O | > 20 µM (inactive)
COc1ccc(/C=C2\Oc3c(ccc4c3CN(Cc3ccncc3)CO4)C2=O)cc1OC | 9.55 µM
O=C1SC(Nc2ccc(I)cc2)C(=O)N1c1ccccc1 (stereo unspecified) | 18.1 µM
CN1C(=CC=C2C(=O)CC(C)(C)CC2=O)C(C)(C)c2ccccc21 | 13.1 µM
CCn1c(=O)c2c(nc(/C=C/c3ccc(OC)c(OC)c3)n2C)n(CC)c1=O | > 20 µM (inactive)
N#Cc1cc(C(=O)c2cc(Cl)cc(Cl)c2O)cn(-c2nccs2)c1=O | > 20 µM (inactive)
C(=Cc1ccccc1)C=NNc1ncnc2ccccc12 | > 20 µM (inactive)
O=C(O)c1ccccc1-c1c2cc(Br)c(=O)cc-2oc2[c]([Hg])c(O)c(Br)cc12 | < 0.039 µM
O=C1c2ccccc2C(=O)C1c1ccnc2ccccc12 | 17.3 µM
Cc1ccc(C)c(C2C(C#N)C(=N)SC(=N)C2C#N)c1 (stereo unspecified) | 11.9 µM
COCCCN(Cc1ccc(C(C)(C)C)cc1)Cc1cccn1Cc1cccc(C)c1 | > 20 µM (inactive)

Structure (SMILES) | EC50
CC1N(C)c2ccc(C=Cc3cc[n+](C)cc3)cc2C1(C)C (stereo unspecified) | 8.49 µM
CCOc1cc2c(cc1C=C(C#N)C#N)OC(C)C2 (stereo unspecified) | 14.7 µM
COc1ccc(NC[C@@H]2C=C(C)[C@H](Cc3nnc(C)o3)C[C@H]2C(C)C)cn1 | 13.3 µM
CC[n+]1c(/C=C/C=C2/N(C)c3ccccc3C2(C)C)sc2ccccc21 | > 20 µM (inactive)
CNC[C@H](O)c1ccc(O)c(O)c1 | 0.039 µM
CCN1CC(=Cc2cc(C)n(C3CC3)c2C)C(=O)C(=Cc2cc(C)n(C3CC3)c2C)C1 | > 20 µM (inactive)
c1ccc(CNc2nc(NCCc3ccncc3)c3sccc3n2)cc1 | 15.8 µM
O=P1(Nc2cc(C(F)(F)F)ccc2Cl)C=C(c2ccccc2)OC(c2ccccc2)=C1 | > 20 µM (inactive)
CSc1ccc(C2CC(c3ccc(Cl)cc3)=Nc3ncnn32)cc1 (stereo unspecified) | > 20 µM (inactive)
CCN1CC=C2C(C#N)C(=N)C(C#N)(C#N)C(c3cccs3)C2C1 (stereo unspecified) | > 20 µM (inactive)
CNC[C@@H](O)c1ccc(O)c(O)c1 | < 0.039 µM
CCN1CCN(C(=O)c2ccc(Cn3ccsc3=NC(=O)c3ccc(OC)c(OC)c3)o2)CC1 | > 20 µM (inactive)
Cc1cccc(Oc2nc3ccccn3c(=O)c2/C=C(\C#N)c2nc3ccccc3s2)c1 | > 20 µM (inactive)
Cc1cc(C=C2Sc3ccccc3N2C)cc(C)[n+]1Cc1ccncc1 | 18.9 µM
CCC(C)n1cc(/C=C2/C(=O)NC(=O)N(c3ccc4c(c3)OCO4)C2=O)c2ccccc21 (stereo unspecified) | > 20 µM (inactive)
COc1ccc(CC2c3cc(OC)c(OC)cc3CC[N+]2(C)CCC(=O)OCCCCCOC(=O)CC[N+]2(C)CCc3cc(OC)c(OC)cc3C2Cc2ccc(OC)c(OC)c2)cc1OC (stereo unspecified) | > 20 µM (inactive)
COCCOc1ccc(NS(=O)(=O)c2cn(C)c(Cl)n2)cn1 | 7.28 µM
CC1CN(c2ccc(/C=C(\C#N)c3nc4ccccc4[nH]3)o2)CC(C)O1 (stereo unspecified) | > 20 µM (inactive)
Nc1c(S(=O)(=O)O)cc2c3c(cccc13)C(=O)N(CCO)C2=O | 0.154 µM
O=C1CSC(=S)N1N=Cc1cc(Br)c(O)c(Br)c1 | 2.31 µM
CNC(=O)c1cnc(/C=C/c2csc(-c3ccsc3)n2)[nH]c1=O | > 20 µM (inactive)
CCOc1ccc(C(=O)Nc2sc3c(c2-c2nc4ccccc4s2)CCN(C)C3)cc1 | > 20 µM (inactive)
Oc1oc(-c2ccccc2Br)nc1C=Nc1ccccc1 | 10.6 µM
CC1CCCCC1OCCNC(=O)C1(c2ccc(F)cc2)CCC1 (stereo unspecified) | > 20 µM (inactive)
CCCCN(C)C1=CC2=CC(=C(C#N)C#N)CCC2CC1 (stereo unspecified) | < 0.039 µM
